# Reference: publication PMC13360702, “An Agonist/Antagonist Photo‐Switchable Vitamin D Mimetic Enables Bidirectional Optical Control of VDR” (Angewandte Chemie (International Ed. in English), 2026)
# Like-named read-outs stand apart in the source and are kept apart here.
# Columns and labels:
# [1] = target: T1, VDR (Homo sapiens, UniProt P11473); assay: Gal4‐VDR hybrid reporter gene assay, agonist mode; format: cell-based; settings: for EC50: HEK293T cells, mean±S.E.M., n≥3
# T1 construct: -CMV-VDR-LBD coding for the hinge region and; expressed in transfected cells; host or cells: HEK293T
# T1 sequence (P11473 127-423 limits assumed): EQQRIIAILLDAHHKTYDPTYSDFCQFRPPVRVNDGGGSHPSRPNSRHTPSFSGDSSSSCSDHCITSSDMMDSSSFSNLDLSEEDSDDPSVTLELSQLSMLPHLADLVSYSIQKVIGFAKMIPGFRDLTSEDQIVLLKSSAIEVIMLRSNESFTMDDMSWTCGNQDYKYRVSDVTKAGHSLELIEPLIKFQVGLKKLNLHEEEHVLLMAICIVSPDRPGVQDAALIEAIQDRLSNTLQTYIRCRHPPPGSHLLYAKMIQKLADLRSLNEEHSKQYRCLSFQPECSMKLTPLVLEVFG
# Experimental: FIGURE 2 Development and characterization of the light‐activated vitamin D mimetic photo‐vitD (10). (a) Structure activity relationship of photo‐switchable VDR agonists 4–10. Compounds were tested in a cellular Gal4‐VDR hybrid reporter gene assay. Relative activation is normalized to the effect of 2 (1 µM) set as 100% activation. The (Z)‐states of the compounds were maintained with a Cell‐Disco [24] (370 nm). […] Data in agonist (EC50) and antagonist mode (IC50; vs. 0.3 µM 2) are shown for (E)‐ and (Z)‐10. The corresponding dose‐response curves are shown in (d). (b) Predicted binding mode of (E)‐7 (green) in the VDR ligand binding site (pdb ID 4g1d). […] (c) Predicted binding mode of (Z)‐10 (yellow) in the VDR ligand binding site. The altered regiochemistry conveys strong preference for the light‐induced (Z)‐configuration and the extended naphthoic acid motif enables a strong ionic contact to R302. (d) Dose‐response curves of (E)‐ (dark) and (Z)‐10 (370 nm) in the Gal4‐VDR reporter gene assay in agonist (top) and antagonist mode (bottom, with 0.3 µM calcitriol (2)). (Z)‐10 activated VDR; (E)‐10 and (Z)‐10 antagonized VDR activation by 0.3 µM calcitriol (2). (Z)‐10 was maintained with a Cell‐Disco [24] (370 nm). Data are the mean±S.E.M. relative VDR act. vs. 0.3 µM calcitriol (2), n≥3. (e) Activity profile of 10 (1 µM) on nuclear receptors showing exclusive VDR activation by the light‐activated state. 10 was tested in a panel of uniform Gal4‐NR hybrid reporter gene assays. (Z)‐10 was maintained with a Cell‐Disco [24] (370 nm). Data are the mean±SD, n = 3. (f) Representative UV/Vis spectra of 10 as (E)‐ (dark) and (Z)‐states (PSS 365 nm), and after switching back to (E) with 465 nm. (g) (E)/(Z)‐ratios of 10 in the dark‐adapted state, after illumination at 365 nm for 5 min and after switching back from mostly‐(Z) with 465 nm for 5 min. (h) 10 could be rapidly and reversibly switched between the (E)‐ and (Z)‐states over multiple cycles by alternating irradiation at 365 and 465 nm. Absorbance was measured at 351 nm with a 25 µM solution in DMSO, one cycle is 30 sec. […] 10 was pre‐illuminated at 365 nm for 30 min and then kept in the dark. (E)/(Z) ratios were measured by NMR. (j) Binding mode prediction of (E)‐ and (Z)‐10 to the VDR‐antagonist complex 2zxm (residues numbered according to [21]). (Z)‐10 (yellow) forms an agonist‐like binding mode with several polar interactions at both ends of the pocket. (E)‐10 (cyan) is also anchored at the distal end of the pocket by an H‐bond network with R302 and the D176 backbone but due to the (E)‐configuration, the β‐naphthoic acid residue protrudes deeper and the pentan‐3‐ol motif rotates away from H333/H423. Therefore, (E)‐10 lacks stabilizing/activating contacts with the H333/H423 region rationalizing its antagonist properties.
# Gal4-hybrid reporter gene assays. Reporter gene assays were performed in HEK293T cells (German Collection of Microorganisms and Cell Culture GmbH, DSMZ) as reported previously using Gal4 -NR LBD fusion receptor plasmids each coding for the hinge region and LBD of the canonical isoform of the respective human nuclear receptor.[7,8] pFR-Luc (Stratagene, La Jolla, CA, USA) served as a reporter plasmid and pRL-SV40 (Promega, Madison, WI, USA) was used for normalization of transfection efficiency and test compound toxicity. Cells were cultured in Dulbecco’s modified Eagle’s medium (DMEM), high glucose supplemented with 10% fetal calf serum (FCS), sodium pyruvate (1 mM), penicillin (100 U/mL), and streptomycin (100 μg/mL) at 37 °C and 5% CO2, and seeded in 96-well plates (3 × 10^4 cells/well). After 24 h, the medium was changed to Opti -MEM without supplements, and cells were transiently transfected using Lipofectamine LTX reagent (Invitrogen, Carlsbad, CA, USA) according to the manufacturer’s protocol. Five hours after transfection, cells were incubated with the test compounds […]
# [2] = tested on: ASC52telo hTERT cells; assay: in vitro osteogenesis model (ALP activity, von Kossa staining); format: cell-based, human; settings: osteogenic differentiation over 15 days, dark or Cell‐Disco (370 nm, 100 ms/10 s)
# Experimental: FIGURE 3 Optical control of VDR activity with photo‐vitD (10). (a) 10 (1 µM) enabled light‐dependent in‐cell activation of VDR in a fluorescent (mCherry) reporter gene assay. Gray curve: dark; blue curve: Cell‐Disco (370 nm; 100 ms/10 s); yellow curve: dark for 10 h, then Cell‐Disco (370 nm); magenta curve: Cell‐Disco (370 nm) for 10 h, then Cell‐Disco (450 nm). Lines are the mean, shadows are S.E.M.; n = 6. (b–d) Phenotypic model of bone formation using human […] (ASC52telo hTERT cells) and cyclic treatment with dexamethasone, 2‐phospho‐L‐ascorbic acid, and glycerol 2‐phosphate over 15 days to induce osteogenesis. Alkaline phosphatase (ALP) activity (b) and von Kossa staining of hydroxyapatite (c; representative photomicrographs in d) were used as markers of osteogenesis. Experiments were performed in the dark (gray bars) and using a Cell‐Disco (370 nm, 100 ms/10 s; blue bars). Data are the mean±SD, n = 6. * p<0.05, ** p<0.01, *** p<0.001 (vs. respective dark or illuminated DMSO (diff.) ctrl or as indicated; ANOVA with Dunnett's multiple comparisons test).
# Photo‐vitD (10) thus appeared suitable for application as tool for VDR control in complex phenotypic settings. […] Photo‐vitD (10) thus enabled bidirectional optical control of osteogenesis in cellulo based on its ability to switch between agonist and antagonist states. […]
# experiment was repeated independently three times. CellDiscos[9] were used for pulsed irradiation at 370 nm or 450 nm to switch 10 between photostationary states. The live cells were assayed for fluorescence reporter intensity at multiple time points over 36 h. Fluorescence intensity (FI) was measured (λex 585/10 nm, λem 610/10 nm) in bottom reading mode with a Tecan Spark Cyto (Tecan Deutschland GmbH).
# Fold FI was obtained by dividing the mean F I of a test sample by the mean FI of the untreated control of the respective measurement (time point).
# In vitro osteogenesis model. […] Absorbance was measured at 410 nm for 60 min every 5 min with an increase in absorbance reflecting phosphatase activity (nmol/min). For quantification via linear […]
# [3] = photophysical characterization (photo‐switching, thermal relaxation); format: physicochemical; settings: room temperature (∼21°C); pre‐illuminated at 365 nm for 30 min, then dark; (E)/(Z) ratios by NMR
# Experimental: FIGURE 2 Development and characterization of the light‐activated vitamin D mimetic photo‐vitD (10). (a) Structure activity relationship of photo‐switchable VDR agonists 4–10. Compounds were tested in a cellular Gal4‐VDR hybrid reporter gene assay. Relative activation is normalized to the effect of 2 (1 µM) set as 100% activation. The (Z)‐states of the compounds were maintained with a Cell‐Disco [24] (370 nm). […] Data in agonist (EC50) and antagonist mode (IC50; vs. 0.3 µM 2) are shown for (E)‐ and (Z)‐10. The corresponding dose‐response curves are shown in (d). (b) Predicted binding mode of (E)‐7 (green) in the VDR ligand binding site (pdb ID 4g1d). […] (c) Predicted binding mode of (Z)‐10 (yellow) in the VDR ligand binding site. The altered regiochemistry conveys strong preference for the light‐induced (Z)‐configuration and the extended naphthoic acid motif enables a strong ionic contact to R302. (d) Dose‐response curves of (E)‐ (dark) and (Z)‐10 (370 nm) in the Gal4‐VDR reporter gene assay in agonist (top) and antagonist mode (bottom, with 0.3 µM calcitriol (2)). (Z)‐10 activated VDR; (E)‐10 and (Z)‐10 antagonized VDR activation by 0.3 µM calcitriol (2). (Z)‐10 was maintained with a Cell‐Disco [24] (370 nm). […] Absorbance was measured at 351 nm with a 25 µM solution in DMSO, one cycle is 30 sec. […] (E)/(Z) ratios were measured by NMR. […]
# [4] = (Z)‐state maintained with Cell‐Disco (370 nm), read-out: VDR modulation light-activated (Z): EC50
# [5] = dark‐adapted (E)‐state, read-out: VDR modulation dark (E): EC50
Structure (SMILES),"EC50 [1, 4]","EC50 [1, 5]","effect on osteogenesis (ALP activity, von Kossa staining positive area) [2]",further results
CCCc1cc(C(O)(CC)CC)ccc1-c1ccc(/N=N/c2ccc3[nH]c(=O)[nH]c3c2)cc1C [compound 9],,,,"VDR modulation light-activated (Z): activation in words ([1]; (Z)‐state, Cell‐Disco (370 nm), 10 μM, inactive = no statistically significant activation at the indicated concentration): failed to activate VDR; VDR modulation dark (E): activation in words ([1]; dark‐adapted (E)‐state, 10 μM, inactive = no statistically significant activation at the indicated concentration): failed to activate VDR"
"C=C1/C(=C\C=C2/CCC[C@]3(C)[C@@H]([C@H](C)CCCC(C)(C)O)CC[C@@H]23)C[C@@H](O)C[C@@H]1O [compound 2, 1,25‐dihydroxyvitamin D, reference compound]",,,counteracted bone formation,
CCCc1cc(C(O)(CC)CC)ccc1-c1ccc(/N=N/c2ccc3cc(C(=O)O)ccc3c2)cc1C [(E)‐10],,,promoted osteogenesis,
CCCc1cc(C(O)(CC)CC)ccc1-c1ccc(/N=N\c2ccc3cc(C(=O)O)ccc3c2)cc1C [(Z)‐10],,,resembled the effects of calcitriol with weaker efficacy,thermal relaxation half‐life [3]: 29 h

# Continued, in another order:
"EC50 [1, 4]","EC50 [1, 5]",Structure (SMILES),"effect on osteogenesis (ALP activity, von Kossa staining positive area) [2]",further results
1400 ± 200 nM,> 10000 nM,CCCc1cc(C(O)(CC)CC)ccc1-c1ccc(/N=N/c2ccc(C(=O)O)c(O)c2)cc1C [compound 8],,
140 ± 300 nM,600 ± 200 nM,CCCc1cc(C(O)(CC)CC)ccc1-c1cc(/N=N/c2ccc(CO)c(CO)c2)ccc1C [compound 4],,"activity difference between the dark‐adapted (E)‐ and the light‐induced (Z)‐isomers ([1]; VDR agonism, (E) vs (Z)): 4 fold"
1100 ± 200 nM,1800 ± 300 nM,CCCCc1cc(C(O)(CC)CC)ccc1-c1cc(/N=N/c2ccc(CO)c(CO)c2)ccc1C [compound 6],,
920 ± 60 nM,1000 ± 200 nM,CCC(O)(CC)c1ccc(-c2cc(/N=N/c3ccc(CO)c(CO)c3)ccc2C)c(C)c1 [compound 5],,
310 ± 40 nM,500 ± 100 nM,CCCc1cc(C(O)(CC)CC)ccc1-c1cc(/N=N/c2ccc(C(=O)O)c(O)c2)ccc1C [compound 7],,
